Patent publication US10905586B2, “Methods and devices for drug delivery to ocular tissue using microneedle” (Emory University, priority 2006, dated 2021)

Assay: Delivery and clearance of fluorescent molecule in suprachoroidal space of live rabbits
Assay type: in vivo
Details: live rabbit
Protocol: The delivery of a fluorescent molecule (sodium fluorescein) to the suprachoroidal space was evaluated using rabbits according to approved live animal experimental protocols. A one dimensional scan of the eye (through line of sight) was taken within the first five minutes after injection to determine the dispersion of the fluorescent molecule in the eye (FIG. 14). The y-axis indicates the fluorescent intensity (i.e., the concentration) and the x-axis represents the position in the eye from front (160) to back (0). Thus, the results illustrate that within the first 5 minutes after injection, the fluorescein had already flowed through the suprachoroidal space to the back of the eye, with some remaining at the initial insertion site.
Similar scans were taken to evaluate the rate of clearance of fluorescein from the suprachoroidal space over time (FIG. 15). The fluorescent intensity was measured in two regions of the eye (the suprachoroidal space and mid-vitreous region) over time.

O=C1OC2(c3ccc(O)cc3Oc3cc(O)ccc32)c2ccccc21 [sodium fluorescein]
Distribution suprachoroidal space vs mid-vitreous region (fluorescent intensity over time): remains in the suprachoroidal space without passing into the mid-vitreous region | Time to substantial clearance from the suprachoroidal space (suprachoroidal injection): ≤ 24 h | Time after injection by which it had flowed through the suprachoroidal space to the back of the eye (suprachoroidal injection, line of sight scan): ≤ 5 min
